The results in this text go back to PMC7905942 (ACS Omega, 2021).

The subject of experiment [1] is HDAC (Hela cell nuclear extract). Type of experiment: biochemical. The following applies: HDAC inhibitory activity and cytotoxicity together.
The test system of experiment [2] is PC3 (prostate cancer) cells. The experiment can be described thus: SRB cytotoxicity assay, PC3. The following applies: Homo sapiens, 48 h, read-out: Cytotoxicity IC50, PC3. The experiment is classed as cell-based.
Experiment [3] concerns NCI-H23 (lung cancer) cells. The experiment can be described thus: SRB cytotoxicity assay, NCI-H23. The following applies: Homo sapiens, NCI-H23, 48 h, read-out: Cytotoxicity IC50, NCI-H23. The experiment is classed as cell-based.
Experiment [4] concerns the target T1, HDAC6 (Homo sapiens, UniProt Q9UBN7).
T1 sequence (Q9UBN7 1-1215): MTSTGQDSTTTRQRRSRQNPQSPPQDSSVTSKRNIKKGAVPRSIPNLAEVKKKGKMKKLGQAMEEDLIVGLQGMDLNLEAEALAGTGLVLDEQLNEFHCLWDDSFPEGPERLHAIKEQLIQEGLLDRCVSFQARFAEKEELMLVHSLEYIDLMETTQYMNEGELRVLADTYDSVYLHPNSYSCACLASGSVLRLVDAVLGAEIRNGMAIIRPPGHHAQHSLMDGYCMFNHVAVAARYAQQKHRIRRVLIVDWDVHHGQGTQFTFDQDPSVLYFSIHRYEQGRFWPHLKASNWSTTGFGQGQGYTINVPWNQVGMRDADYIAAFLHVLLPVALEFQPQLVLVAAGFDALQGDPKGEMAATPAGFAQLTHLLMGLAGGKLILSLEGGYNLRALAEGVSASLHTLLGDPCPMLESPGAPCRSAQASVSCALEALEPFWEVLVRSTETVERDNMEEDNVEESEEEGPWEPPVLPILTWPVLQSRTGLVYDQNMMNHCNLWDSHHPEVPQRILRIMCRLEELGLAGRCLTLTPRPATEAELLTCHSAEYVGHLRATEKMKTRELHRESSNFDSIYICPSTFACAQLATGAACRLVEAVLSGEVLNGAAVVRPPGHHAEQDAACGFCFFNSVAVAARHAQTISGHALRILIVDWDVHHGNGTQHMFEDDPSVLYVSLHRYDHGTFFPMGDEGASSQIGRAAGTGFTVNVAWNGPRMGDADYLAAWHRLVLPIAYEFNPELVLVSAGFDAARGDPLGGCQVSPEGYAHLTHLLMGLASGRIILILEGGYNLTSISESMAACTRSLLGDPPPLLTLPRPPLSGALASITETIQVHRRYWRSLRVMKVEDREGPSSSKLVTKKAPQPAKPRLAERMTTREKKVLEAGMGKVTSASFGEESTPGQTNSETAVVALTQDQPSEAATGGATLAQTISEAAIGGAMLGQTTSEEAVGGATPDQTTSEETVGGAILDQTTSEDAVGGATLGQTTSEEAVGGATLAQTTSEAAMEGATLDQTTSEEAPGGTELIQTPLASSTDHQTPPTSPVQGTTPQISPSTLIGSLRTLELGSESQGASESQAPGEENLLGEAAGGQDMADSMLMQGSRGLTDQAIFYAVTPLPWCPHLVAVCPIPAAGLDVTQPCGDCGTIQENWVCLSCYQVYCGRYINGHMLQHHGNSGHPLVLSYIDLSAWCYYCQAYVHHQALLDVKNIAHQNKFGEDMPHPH
As to the kind of experiment: HDAC6 enzyme assay. Type of experiment: biochemical.

Experiment [5] concerns SW620 human colon cancer cells. As to the kind of experiment: Cell cycle analysis by flow cytometry. The following applies: compounds 10 μM, SAHA 1 μM, 24 h, vehicle 6.29%. The experiment is classed as cell-based.
Experiment [6] concerns SW620 human colon cancer cells. The experiment can be described thus: Annexin V-FITC/PI dual staining apoptosis assay. The experiment is classed as cell-based. The settings on record: 10 μM, 24 h.
Experiment [7] has as its system SW620, PC3 and NCI-H23 cancer cell lines. The experiment can be described thus: SRB cytotoxicity, range over three human cancer cell lines. The experiment is classed as cell-based. The following applies: read-out: Cytotoxicity IC50 values (range over cell lines).
Experiment [8] has as its system SW620 (colon cancer) cells. The experiment can be described thus: SRB cytotoxicity assay, SW620. The experiment is classed as cell-based. The settings on record: Homo sapiens, SW-620, 48 h, read-out: Cytotoxicity IC50, SW620.

SMILES strings stand for the structures.

As to `O=C(/C=C/c1ccc2c(=O)n(Cc3ccc(Cl)cc3)cnc2c1)NO` [Compound 10l, (E)-3-(3-(4-Chlorobenzyl)-4-oxo-3,4-dihydroquinazolin-7-yl)-N-hydroxyacrylamide], the “fold more potent than SAHA” value in experiment [1] was 2- to 3 fold. Further, the IC50 in experiment [2] was 767 ± 25 nM; in experiment [3] it was 899 ± 45 nM; in experiment [4], 33 nM; in experiment [7], 671 to 1210 nM. In experiment [5], the “cells in G2/M phase” value worked out at 26.70%. Also, in experiment [6], the “induction of apoptosis (in words)” value was “substantially induced both early and late apoptosis”.
As to `Cc1ccc(Cn2cnc3cc(/C=C/C(=O)NO)ccc3c2=O)cc1` [Compound 10m, (E)-N-Hydroxy-3-(3-(4-methylbenzyl)-4-oxo-3,4-dihydroquinazolin-7-yl)acrylamide], the “fold more potent than SAHA” value in experiment [1] is 2- to 3 fold. Moreover, the concentration for half-maximal inhibition (IC50) in experiment [8] was 898 ± 47 nM; in experiment [2] it was 1210 ± 50 nM; in experiment [3], 769 ± 9 nM; in experiment [4], 47 ± 1 nM; in experiment [7], 671 to 1210 nM. Further, in experiment [5], the “cells in G2/M phase” value was 30.11%. For the same compound, the “induction of apoptosis (in words)” value in experiment [6] was “substantially induced both early and late apoptosis”.
